Data published in patent US12662479B2 (Foghorn Therapeutics Inc., priority 2020, dated 2026).

Experiments:
HiBit-BRM fusion protein = biological target: T1, HiBit-BRM fusion protein (Homo sapiens, UniProt P51531); test: HiBiT-BRM cell-based degradation assay (Nano-Glo HiBiT Lytic Detection, 24 h); conditions: HeLa cells expressing HiBiT-BRM; for DC50: read-out: BRM HiBit Degradation IC50; for BRM HiBit Degradation Maximum measured: top dose 30 μM
T1 construct: expressed in transfected cells
In short: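 Stable HiBiT-BRM HeLa line; 24 h compound exposure, top final 30 μM, 3-fold, 10 pts in duplicate. Lytic HiBiT/LgBiT luminescence readout. % degradation vs DMSO (0%) and 2 μM known BRM/BRG1 degrader (100%).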

[1] = biological target: T2, HiBit-BRG1 fusion protein (Homo sapiens, UniProt P51532); test: HiBiT-BRG1 cell-based degradation assay (Nano-Glo HiBiT Lytic Detection, 24 h); conditions: HeLa cells expressing HiBit-BRG1 and LgBit; for DC50: read-out: BRG1 HiBit Degradation IC50; for Dmax: HeLa, top dose 30 μM, read-out: BRG1 HiBit Degradation Maximum measured
T2 construct: expressed in transfected cells
T2 sequence (P51532 whole entry, the tested form may be a part): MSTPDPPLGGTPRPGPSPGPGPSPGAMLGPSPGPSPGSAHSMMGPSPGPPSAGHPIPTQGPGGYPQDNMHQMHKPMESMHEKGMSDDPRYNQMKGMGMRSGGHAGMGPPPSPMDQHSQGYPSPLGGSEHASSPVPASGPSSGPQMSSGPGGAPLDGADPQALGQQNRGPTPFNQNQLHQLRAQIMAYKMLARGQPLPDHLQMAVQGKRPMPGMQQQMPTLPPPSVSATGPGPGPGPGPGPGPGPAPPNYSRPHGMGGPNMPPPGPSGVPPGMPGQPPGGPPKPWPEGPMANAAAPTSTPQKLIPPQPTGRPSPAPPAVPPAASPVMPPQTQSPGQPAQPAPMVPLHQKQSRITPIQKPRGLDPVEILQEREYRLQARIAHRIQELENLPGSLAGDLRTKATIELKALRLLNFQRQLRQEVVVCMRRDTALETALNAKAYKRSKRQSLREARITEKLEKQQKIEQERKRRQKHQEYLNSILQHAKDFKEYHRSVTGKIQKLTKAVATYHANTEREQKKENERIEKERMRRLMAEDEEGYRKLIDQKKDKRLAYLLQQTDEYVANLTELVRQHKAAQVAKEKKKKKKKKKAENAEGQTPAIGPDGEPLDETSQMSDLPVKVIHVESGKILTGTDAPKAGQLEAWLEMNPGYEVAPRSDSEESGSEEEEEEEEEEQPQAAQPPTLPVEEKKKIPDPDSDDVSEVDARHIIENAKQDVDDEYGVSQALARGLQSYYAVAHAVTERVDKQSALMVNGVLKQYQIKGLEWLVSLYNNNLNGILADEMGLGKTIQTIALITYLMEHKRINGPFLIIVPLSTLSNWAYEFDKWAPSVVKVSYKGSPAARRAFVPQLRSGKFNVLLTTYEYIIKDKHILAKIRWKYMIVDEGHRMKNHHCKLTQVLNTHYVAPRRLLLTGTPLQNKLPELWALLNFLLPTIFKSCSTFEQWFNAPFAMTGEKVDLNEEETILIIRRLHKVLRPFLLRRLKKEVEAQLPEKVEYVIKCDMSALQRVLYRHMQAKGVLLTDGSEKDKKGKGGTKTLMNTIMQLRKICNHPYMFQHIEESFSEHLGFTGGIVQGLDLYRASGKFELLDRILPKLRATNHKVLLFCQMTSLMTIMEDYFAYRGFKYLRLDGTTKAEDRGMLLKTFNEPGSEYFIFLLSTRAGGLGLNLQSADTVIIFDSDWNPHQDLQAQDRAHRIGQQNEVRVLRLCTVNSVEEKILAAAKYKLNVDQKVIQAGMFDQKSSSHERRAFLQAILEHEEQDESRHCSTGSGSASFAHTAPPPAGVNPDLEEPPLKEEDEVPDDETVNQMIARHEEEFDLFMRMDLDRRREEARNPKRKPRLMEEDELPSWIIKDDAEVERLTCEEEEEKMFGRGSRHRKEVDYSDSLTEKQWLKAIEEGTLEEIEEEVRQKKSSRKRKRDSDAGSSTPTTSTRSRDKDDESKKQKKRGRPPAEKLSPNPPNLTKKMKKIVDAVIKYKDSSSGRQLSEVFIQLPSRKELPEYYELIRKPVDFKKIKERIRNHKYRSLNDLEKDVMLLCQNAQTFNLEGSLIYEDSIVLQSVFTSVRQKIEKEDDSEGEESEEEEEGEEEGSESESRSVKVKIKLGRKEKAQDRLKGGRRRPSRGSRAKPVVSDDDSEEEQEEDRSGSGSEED
In short: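 Degradation is scaled from DMSO-treated cells (0%) to cells given 2 μM of a known BRM/BRG1 degrader (100%). HeLa cells stably carrying HiBiT-BRG1 plus LgBiT (5000/well) were lysed with Nano-Glo HiBiT detection reagent, shaken 10 min at RT, and luminescence read.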

T1 sequence (P51531 whole entry, the tested form may be a part): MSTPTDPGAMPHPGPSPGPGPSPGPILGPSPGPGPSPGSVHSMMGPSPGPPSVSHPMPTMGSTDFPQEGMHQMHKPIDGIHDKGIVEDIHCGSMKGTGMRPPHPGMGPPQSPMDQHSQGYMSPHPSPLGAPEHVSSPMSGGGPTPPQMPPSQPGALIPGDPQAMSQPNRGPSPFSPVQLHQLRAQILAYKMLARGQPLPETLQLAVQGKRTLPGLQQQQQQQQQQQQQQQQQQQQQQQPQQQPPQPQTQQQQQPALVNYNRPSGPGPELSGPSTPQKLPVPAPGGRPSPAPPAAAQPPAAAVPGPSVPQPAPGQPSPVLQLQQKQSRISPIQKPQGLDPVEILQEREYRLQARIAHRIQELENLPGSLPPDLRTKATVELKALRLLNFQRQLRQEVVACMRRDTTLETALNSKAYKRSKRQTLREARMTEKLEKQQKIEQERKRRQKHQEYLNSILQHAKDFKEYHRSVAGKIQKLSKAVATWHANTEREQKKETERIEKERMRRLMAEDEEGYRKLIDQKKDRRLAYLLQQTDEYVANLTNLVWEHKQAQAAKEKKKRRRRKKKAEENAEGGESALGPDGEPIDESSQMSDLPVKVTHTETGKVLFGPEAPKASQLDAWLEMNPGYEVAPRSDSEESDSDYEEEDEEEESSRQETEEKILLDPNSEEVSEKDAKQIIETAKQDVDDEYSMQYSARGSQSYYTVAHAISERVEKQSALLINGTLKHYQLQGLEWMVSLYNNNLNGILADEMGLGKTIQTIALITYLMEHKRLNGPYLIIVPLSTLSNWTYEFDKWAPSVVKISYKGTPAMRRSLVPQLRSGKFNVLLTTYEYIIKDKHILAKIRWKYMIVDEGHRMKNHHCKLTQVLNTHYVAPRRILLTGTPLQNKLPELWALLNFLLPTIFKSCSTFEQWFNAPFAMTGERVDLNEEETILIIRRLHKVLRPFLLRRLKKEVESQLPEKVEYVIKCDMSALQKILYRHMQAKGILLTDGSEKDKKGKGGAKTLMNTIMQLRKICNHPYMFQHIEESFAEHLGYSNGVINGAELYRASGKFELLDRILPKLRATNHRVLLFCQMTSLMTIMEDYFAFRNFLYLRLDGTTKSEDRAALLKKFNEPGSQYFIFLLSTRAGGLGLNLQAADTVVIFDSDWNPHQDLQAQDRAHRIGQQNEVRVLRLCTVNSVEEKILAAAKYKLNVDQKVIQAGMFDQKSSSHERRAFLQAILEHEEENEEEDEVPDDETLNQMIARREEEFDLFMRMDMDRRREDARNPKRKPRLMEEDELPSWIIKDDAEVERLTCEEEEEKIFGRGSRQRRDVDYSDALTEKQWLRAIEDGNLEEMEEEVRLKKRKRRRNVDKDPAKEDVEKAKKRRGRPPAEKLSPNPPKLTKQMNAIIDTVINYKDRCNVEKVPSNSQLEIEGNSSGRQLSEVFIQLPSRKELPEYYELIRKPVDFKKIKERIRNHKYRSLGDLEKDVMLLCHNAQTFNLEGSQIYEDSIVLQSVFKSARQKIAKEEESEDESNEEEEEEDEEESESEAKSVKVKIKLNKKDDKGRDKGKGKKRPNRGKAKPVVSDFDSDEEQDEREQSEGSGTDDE

Row | Compound | DC50 (HiBit-BRM fusion protein) [µM] | BRM HiBit Degradation Maximum measured (HiBit-BRM fusion protein) | DC50 [1] [µM] | Dmax [1] [%]
1 | CS(=O)(=O)n1ccc(C(=O)N[C@@H](CCOCCCC(=O)N2CCN(CCCCCOc3ccc4c(c3)C(=O)N(C3CCC(=O)NC3=O)C4=O)CC2)C(=O)Nc2nc(-c3ccccc3)cs2)c1 (stereo partly drawn) [Compound 254, (2S)-4-[4-[4-(5-[[2-(2,6-dioxopiperidin-3-yl)-1,3-dioxoisoindol-5-yl]oxy]pentyl)piperazin-1-yl]-4-oxobutoxy]-2-[(1-methanesulfonylpyrrol-3-yl)formamido]-N-(4-phenyl-1,3-thiazol-2-yl)butanamide] | > 10 | C (‘C’ = Maximum degradation <50%) | > 10 | < 50
2 | COC(=O)N1CCCC(c2csc(NC(=O)[C@H](CCCCNC(=O)CCCCCCCCCCNc3cccc4c3C(=O)N(C3CCC(=O)NC3=O)C4=O)NC(=O)c3ccn(C(C)(C)C)c3)n2)C1 (stereo partly drawn) [Compound 184, methyl 3-[2-[(2S)-2-[(1-tert-butylpyrrol-3-yl)formamido]-6-(11-[[2-(2,6-dioxopiperidin-3-yl)-1,3-dioxoisoindol-4-yl]amino]undecanamido)hexanamido]-1,3-thiazol-4-yl]piperidine-1-carboxylate] | > 10 | C (‘C’ = Maximum degradation <50%) | > 10 | < 50
3 | Cc1ncsc1-c1ccc(CNC(=O)[C@@H]2C[C@@H](O)CN2C(=O)[C@@H](NC(=O)COCCOCCNC(=O)C2(c3cc(-c4cccc(-c5csc(NC(=O)CNC(=O)c6ccn(S(C)(=O)=O)c6)n5)c4)ccn3)CC2)C(C)(C)C)cc1 [Compound 108, N-[2-[[4-[3-[2-[1-[2-[2-[2-[[(1S)-1-[(2S,4R)-4-hydroxy-2-[[4-(4-methylthiazol-5-yl)phenyl]methylcarbamoyl]pyrrolidine-1-carbonyl]-2,2-dimethyl-propyl]amino]-2-oxo-ethoxy]ethoxy]ethylcarbamoyl]cyclopropyl]-4-pyridyl]phenyl]thiazol-2-yl]amino]-2-oxo-ethyl]-1-methylsulfonyl-pyrrole-3-carboxamide] | 0.1 to 1 | A (‘A’ = Maximum degradation >75%) | 0.1 to 1 | > 75
4 | CS(=O)(=O)n1ccc(C(=O)N[C@@H](COCc2ccc(C(=O)NCCCC#Cc3ccc4c(c3)C(=O)N(C3CCC(=O)NC3=O)C4=O)cc2)C(=O)Nc2nc(-c3ccccc3)cs2)c1 (stereo partly drawn) [Compound 204, N-[5-[2-(2,6-dioxopiperidin-3-yl)-1,3-dioxoisoindol-5-yl]pent-4-yn-1-yl]-4-[[(2S)-2-[(1-methanesulfonylpyrrol-3-yl)formamido]-2-[(4-phenyl-1,3-thiazol-2-yl)carbamoyl]ethoxy]methyl]benzamide] | > 10 | C (‘C’ = Maximum degradation <50%) | 0.1 to 1 | 50 to 75
5 | CS(=O)(=O)n1ccc(C(=O)NCC(=O)Nc2nc(-c3cccc(-c4ccnc(N5CCN(C(=O)CCOCCOCCOc6cccc7c6C(=O)N(C6CCC(=O)NC6=O)C7=O)CC5)c4)c3)cs2)c1 (centres unmarked) [Compound 34, N-(2-((4-(3-(2-(4-(3-(2-(2-((2-(2,6-dioxopiperidin-3-yl)-1,3-dioxoisoindolin-4-yl)oxy)ethoxy)ethoxy)propanoyl)piperazin-1-yl)pyridin-4-yl)phenyl)thiazol-2-yl)amino)-2-oxoethyl)-1-(methylsulfonyl)-1H-pyrrole-3-carboxamide] | 0.1 to 1 | B (‘B’ = Maximum degradation ≥50% and ≤75%) | 0.1 to 1 | 50 to 75
6 | Cc1c(C(=O)NCC(=O)Nc2nc(-c3cccc(-c4ccnc(N(C)CC(=O)N5CCC(C6CCN(C(=O)COc7cccc8c7C(=O)N(C7CCC(=O)NC7=O)C8=O)CC6)CC5)c4)c3)cs2)cn(S(=O)(=O)C(C)C)c1C (centres unmarked) [Compound 116, N-(2-((4-(3-(2-((2-(1′-(2-((2-(2,6-dioxopiperidin-3-yl)-1,3-dioxoisoindolin-4-yl)oxy)acetyl)-[4,4′-bipiperidin]-1-yl)-2-oxoethyl)(methyl)amino)pyridin-4-yl)phenyl)thiazol-2-yl)amino)-2-oxoethyl)-1-(isopropylsulfonyl)-4,5-dimethyl-1H-pyrrole-3-carboxamide] | > 10 | C (‘C’ = Maximum degradation <50%) | > 10 | < 50
7 | CS(=O)(=O)n1ccc(C(=O)N[C@@H](CCOCCCC(=O)NCCCC#Cc2cccc3c2C(=O)N(C2CCC(=O)NC2=O)C3=O)C(=O)Nc2nc(-c3ccccc3)cs2)c1 (stereo partly drawn) [Compound 272, (2S)-4-[3-([5-[2-(2,6-dioxopiperidin-3-yl)-1,3-dioxoisoindol-4-yl]pent-4-yn-1-yl]carbamoyl)propoxy]-2-[(1-methanesulfonylpyrrol-3-yl)formamido]-N-(4-phenyl-1,3-thiazol-2-yl)butanamide] | > 10 | C (‘C’ = Maximum degradation <50%) | > 10 | < 50
8 | CS(=O)(=O)n1ccc(C(=O)N[C@@H](COCc2ccc(C(=O)NCCS(=O)(=O)CCNc3cccc4c3C(=O)N(C3CCC(=O)NC3=O)C4=O)cc2)C(=O)Nc2nc(-c3ccccc3)cs2)c1 (stereo partly drawn) [Compound 190, N-[2-(2-[[2-(2,6-dioxopiperidin-3-yl)-1,3-dioxoisoindol-4-yl]amino]ethanesulfonyl)ethyl]-4-[[(2S)-2-[(1-methanesulfonylpyrrol-3-yl)formamido]-2-[(4-phenyl-1,3-thiazol-2-yl)carbamoyl]ethoxy]methyl]benzamide] | > 10 | C (‘C’ = Maximum degradation <50%) | > 10 | < 50
9 | CN(CC(=O)NCCCCCNc1ccc2c(c1)C(=O)N(C1CCC(=O)NC1=O)C2=O)c1cc(-c2cccc(-c3csc(NC(=O)CNC(=O)c4ccn(S(C)(=O)=O)c4)n3)c2)ccn1 (centres unmarked) [Compound 60] | > 10 | C (‘C’ = Maximum degradation <50%) | > 10 | < 50
10 | Cc1ncsc1-c1ccc(CNC(=O)[C@@H]2C[C@@H](O)CN2C(=O)[C@@H](NC(=O)CCCC(=O)NCCOc2cc(-c3cccc(-c4csc(NC(=O)CNC(=O)c5ccn(S(C)(=O)=O)c5)n4)c3)ccn2)C(C)(C)C)cc1 [Compound 77, N1-((S)-1-((2S,4R)-4-hydroxy-2-((4-(4-methylthiazol-5-yl)benzyl)carbamoyl)pyrrolidin-1-yl)-3,3-dimethyl-1-oxobutan-2-yl)-N5-(2-((4-(3-(2-(2-(1-(methylsulfonyl)-1H-pyrrole-3-carboxamido)acetamido)thiazol-4-yl)phenyl)pyridin-2-yl)oxy)ethyl)glutaramide] | > 10 | C (‘C’ = Maximum degradation <50%) | > 10 | < 50
11 | CS(=O)(=O)n1ccc(C(=O)NCC(=O)Nc2nc(-c3cccc(-c4cccc(CNC(=O)CCCCOc5cccc6c5C(=O)N(C5CCC(=O)NC5=O)C6=O)c4)c3)cs2)c1 (centres unmarked) [Compound 57, N-(2-((4-(3′-((5-((2-(2,6-dioxopiperidin-3-yl)-1,3-dioxoisoindolin-4-yl)oxy)pentanamido)methyl)-[1,1′-biphenyl]-3-yl)thiazol-2-yl)amino)-2-oxoethyl)-1-(methylsulfonyl)-1H-pyrrole-3-carboxamide] | > 10 | C (‘C’ = Maximum degradation <50%) | > 10 | < 50
12 | CS(=O)(=O)n1ccc(C(=O)N[C@@H](COCc2ccc(CNC(=O)CCOCCOCCOc3cccc4c3C(=O)N(C3CCC(=O)NC3=O)C4=O)cc2)C(=O)Nc2nc(-c3ccccc3)cs2)c1 (stereo partly drawn) [Compound 182, 3-[2-(2-[[2-(2,6-dioxopiperidin-3-yl)-1,3-dioxoisoindol-4-yl]oxy]ethoxy)ethoxy]-N-[(4-[[(2S)-2-[(1-methanesulfonylpyrrol-3-yl)formamido]-2-[(4-phenyl-1,3-thiazol-2-yl)carbamoyl]ethoxy]methyl]phenyl)methyl]propanamide] | > 10 | C (‘C’ = Maximum degradation <50%) | > 10 | < 50
13 | Cc1ncsc1-c1ccc(CNC(=O)[C@@H]2C[C@@H](O)CN2C(=O)[C@@H](NC(=O)CCCCCCC(=O)NCc2cc(-c3cccc(-c4csc(NC(=O)CNC(=O)c5ccn(S(C)(=O)=O)c5)n4)c3)ccn2)C(C)(C)C)cc1 [Compound 142] | > 10 | C (‘C’ = Maximum degradation <50%) | > 10 | < 50
14 | CS(=O)(=O)n1ccc(C(=O)N[C@@H](COCc2ccc(C(=O)NCCCCCNc3ccc4c(c3)C(=O)N(C3CCC(=O)NC3=O)C4=O)cc2)C(=O)Nc2nc(-c3ccccc3)cs2)c1 (stereo partly drawn) [Compound 243, N-(5-[[2-(2,6-dioxopiperidin-3-yl)-1,3-dioxoisoindol-5-yl]amino]pentyl)-4-[[(2S)-2-[(1-methanesulfonylpyrrol-3-yl)formamido]-2-[(4-phenyl-1,3-thiazol-2-yl)carbamoyl]ethoxy]methyl]benzamide] | 0.1 to 1 | B (‘B’ = Maximum degradation ≥50% and ≤75%) | 0.1 to 1 | > 75
